“Also recorded” adds a separate entry of the source. Values belong to the molecule of their own block, whether it stands above or below them. FAM = carboxyfluorescein
Assays:
[1] = tested on: HDM2-p53 interaction (wild-type HDM2); experiment: In vitro pull-down assay, p53-HDM2 wild-type; assay type: binding; details: 10 µM, IVT-expressed proteins
Source text: (§1) Single mutant HDM2 clones were generated by Quickchange mutagenesis (Stratagene) of parental HDM2-PET22b using appropriate primers 1-6. The constructs were amplified with primers petF2 and petR to make HDM2 amplicons with T7 promoter and ribosome binding site required for in vitro transcription-translation (IVT) of wild-type or mutant HDM2. Primers 1-6 were used to introduce mutations into the parental pCMV-HDM2 mammalian expression construct by Quickchange mutagenesis. Both the HDM2-PET22b and pCMV-HDM2 constructs additionally encode a C-terminal HA tag. The plasmid p53-PET22b was also amplified with petF2 and petR to make template for IVT of wild-type p53.
Protein G beads (Invitrogen) were incubated with anti-HA (1 µg per 10 µL beads) for 1 hour in PBST-3%BSA and subsequently washed twice in PBST-0.1%BSA. IVT-expressed wild-type or mutant HDM2 was incubated with the beads on a rotator for 30 mins. […] IVT-expressed p53 was added to the mixture and incubation allowed for 1 hour. Beads were finally washed thrice in PBST-0.1%BSA and thrice with PBS, and bound proteins eluted by resuspension in 20 µL SDS-PAGE loading buffer and incubation at 95°C for 5 minutes. […]

[2] = tested on: wild-type and mutant (M62A, Q24R) HDM2; p53-dependent genes in HCT116 p53^+/+ cells; experiment: RT-qPCR of p53-regulated genes in HCT116 p53+/+ cells transfected with HDM2 variants; assay type: cell-based; details: Nutlin 10 µM; M62A and Q24R compared to wild-type; 24 h post-transfection; RT-qPCR (n=2)
Source text: In all cases, the total amount of plasmid DNA transfected per well was equilibrated by addition of the parental vector pcDNA3.1a(+).

[3] = tested on: p53 (1-81) - HDM2 (7-134) interaction, wild-type, Q24R and M62A, in BHK cells; experiment: Fluorescent 2-Hybrid (F2H) co-localization assay; assay type: cell-based; details: 1 hour at 37°C, titration, difference particularly evident at 1-10 µM for Nutlin, n=4
Protocol: Interaction (%) was determined as the ratio of cells showing co-localization of fluorescent signals at the nuclear spot to the total number of evaluated cells. To enable comparison between the experiments, a normalization step was performed. For each independent experiment, the interaction ratios in treated wells were normalized to the interaction ratios in control (untreated) wells:
I % = 100% * Interactions_treated/Interactions_untreated
In this way, the control values in each experiment are taken to be 100%. For automated image acquisition an INCell Analyzer 1000 with a 20X objective (GE Healthcare) was used. Automated image segmentation and analysis was performed with the corresponding INCell Workstation 3.6 software. At least 100 co-transfected cells were analyzed per well. Titrations were carried out independently three to five times.
For the F2H assay, significance (t-test) is denoted relative to the percentage interactions observed for wild-type HDM2 under the indicated treatment conditions. For transcript analysis by real-time PCR, two-way ANOVA with Bonferroni post test was performed using GraphPad Prism software.

HDM2 Y104G = details: mutation in secondary Nutlin binding site; ref [54]; cited from earlier work
Source text: Studies have shown that K51 of HDM2 interacts with E23 and E25 of HDM ...

HDM2 M62 = details: ref [19]; cited from earlier work
Source text: Modelling studies show the hydrophobic hydrocarbon chain comprising the staple interacts with HDM2 in the vicinity of M62 (Figure 6). Whilst the M62A mutation impacts negatively on binding of both stapled peptide and p53 compared to wild type HDM2, the presence of additional “fall-back” interactions (apart from M62, see below) results in marginal overall loss of binding by these ligands. […] Mutation to alanine causes marg ...

HDM2 (1-125) M62A = biological target: T1, HDM2 (1-125) M62A (Homo sapiens, UniProt Q00987, M62A); experiment: Fluorescence anisotropy, competitive titration, HDM2 M62A; assay type: binding; details: M62A compared to wild-type
T1 construct: using purified HDM2 (1-125) and carboxyfluorescein (FAM) labeled 12-1 peptide; GST (N, cleaved yes); made in house; host or cells: E. coli BL21 DE3
Protocol: (§2) Cells harbouring the GST fusion constructs were grown in LB medium at 37°C to an OD600 of ~0.6 and induction was carried out with 1 mM IPTG at room temperature. Cells were harvested by centrifugation and the cell pellets were resuspended in 50 mM Tris pH 8.0, 10% sucrose and then sonicated. The sample was next centrifuged for 60 mins at 17,000 g at 4°C. The supernatant was applied to a 5 mL FF GST column (Amersham) pre-equilibrated in wash buffer (50 mM Tris-HCl pH 8.0, 150 mM NaCl, 1 mM DTT). The column was then further washed by 6 volumes of wash buffer. HDM2 constructs were then purified from the column by cleavage with Precission protease (GE Lifesciences). 10 units of precission protease, in one column volume of wash buffer, were injected onto the column. The cleavage reaction was allowed to proceed overnight at 4°C. The cleaved protein was then eluted off the column with wash buffer. Protein fractions were analyzed with SDS page gel and concentrated using Centricon (3.5 kDa MWCO) concentrator. […] Protein fractions were analyzed with SDS page gel and concentrated using a Centricon (3.5 kDa MWCO) concentrator, Millipore.
(§3) All titrations were carried out in triplicate. Curve-fitting was carried out using Prism 4.0 (GraphPad).

HDM2 (1-125) Q24R = biological target: T2, HDM2 (1-125) Q24R (Homo sapiens, UniProt Q00987, Q24R); experiment: Fluorescence anisotropy, competitive titration, HDM2 Q24R; assay type: binding; details: Q24R compared to wild-type
T2 construct: using purified HDM2 (1-125) and carboxyfluorescein (FAM) labeled 12-1 peptide; GST (N, cleaved yes); made in house; host or cells: E. coli BL21 DE3
Protocol: as §2, §3

HDM2 (1-125) P20L = biological target: T3, HDM2 (1-125) P20L (Homo sapiens, UniProt Q00987, P20L); experiment: Fluorescence anisotropy, competitive titration, HDM2 P20L; assay type: binding; details: P20L compared to wild-type
T3 construct: using purified HDM2 (1-125) and carboxyfluorescein (FAM) labeled 12-1 peptide; GST (N, cleaved yes); made in house; host or cells: E. coli BL21 DE3
Protocol: as §2, §3

[4] = tested on: HDM2-p53 interaction (M62A HDM2); experiment: In vitro pull-down assay, p53-HDM2 M62A; assay type: binding; details: 10 µM, IVT-expressed proteins
Source text: as §1, with “tag.” for “tag. The plasmid p53-PET22b was also amplified with petF2 and petR to make template for IVT of wild-type p53.”
(§4) Protein G beads (Invitrogen) were incubated with anti-HA (1 µg per 10 µL beads) for 1 hour in PBST-3%BSA and subsequently washed twice in PBST-0.1%BSA. IVT-expressed wild-type or mutant HDM2 was incubated with the beads on a rotator for 30 mins. […] IVT-expressed p53 was added to the mixture and incubation allowed for 1 hour. Beads were finally washed thrice in PBST-0.1%BSA and thrice with PBS, and bound proteins eluted by resuspension in 20 µL SDS-PAGE loading buffer and incubation at 95°C for 5 minutes. Both the eluates and inputs were subjected to electrophoresis, transferred to nitrocellulose membranes and probed for p53 with horseradish peroxidise conjugated DO1 antibody (Santa Cruz) or for HDM2 with anti-HA antibody followed by rabbit anti-mouse (Dakocytomation).

[5] = tested on: HDM2-p53 interaction (Q24R HDM2); experiment: In vitro pull-down assay, p53-HDM2 Q24R; assay type: binding; details: 10 µM, IVT-expressed proteins
Source text: as §1, with “tag.” for “tag. The plasmid p53-PET22b was also amplified with petF2 and petR to make template for IVT of wild-type p53.”
as §4

[6] = tested on: wild-type HDM2 / p53 transactivation in p53/MDM2-null DKO cells; experiment: p53 reporter assay in p53/MDM2-null DKO cells, wild-type HDM2; assay type: cell-based, mouse; details: stapled peptide, 20 µM, mean ± SD (n=2)
Protocol: (§5) Mouse embryonic fibroblast p53/Mdm2 double-knockout (DKO) cells (a kind gift from Guillermina Lozano) [30] and H1299 p53^−/− cells [31] were maintained in Dulbecco's modified Eagle's medium (DMEM) with 10% (v/v) foetal calf serum (FCS) and 1% (v/v) penicillin/streptomycin. The cells were seeded at 1.0 × 10^5 cells/well in 6-well plates, 24 hours prior to transfection. Cells were co-transfected with wild-type or mutant HDM2 plasmid, p53-pcDNA plasmid, LacZ reporter plasmid and luciferase plasmid using TurboFect transfection reagent (Thermo Scientific) according to the manufacturer’s instructions. […] In all cases, the total amount of plasmid DNA transfected per well was equilibrated by addition of the parental vector pcDNA3.1a(+).
(§6) DKO cells were harvested 24hours after transfection and β-galactosidase activities were assessed using the Dual-light System (Applied Biosystems) according to the manufacturer's protocol. The β-galactosidase activity was normalized with luciferase activity for each sample.

[7] = tested on: M62A HDM2 / p53 transactivation in p53/MDM2-null DKO cells; experiment: p53 reporter assay in p53/MDM2-null DKO cells, HDM2 M62A; assay type: cell-based, mouse; details: stapled peptide, 20 µM, mean ± SD (n=2)
Protocol: as §5, §6

[8] = biological target: T4, HDM2 (1-125), wild-type, purified (human, UniProt Q00987 1-125); experiment: fluorescence polarisation; competitive fluorescence anisotropy titrations against FAM-labelled 12-1 peptide with purified HDM2 (1-125); apparent Kds; PBS pH 7.4, 3% DMSO, 0.1% Tween 20
T4 construct: source: E. coli BL21 DE3, purified (GST column, PreScission cleavage, ResourceS)

[9] = biological target: T5, HDM2 (1-125) M62A, purified (human, UniProt Q00987 1-125, M62A); experiment: as above
T5 construct: also called HDM2-M62A; source: E. coli BL21 DE3, purified (GST column, PreScission cleavage, ResourceS)

[10] = biological target: T6, HDM2 (1-125) Q24R, purified (human, UniProt Q00987 1-125, Q24R); experiment: as above
T6 construct: source: E. coli BL21 DE3, purified (GST column, PreScission cleavage, ResourceS)

[11] = biological target: T7, HDM2 (1-125) P20L, purified (human, UniProt Q00987 1-125, P20L); experiment: as above
T7 construct: source: E. coli BL21 DE3, purified (GST column, PreScission cleavage, ResourceS)
T7 sequence (Q00987 1-125 P20L): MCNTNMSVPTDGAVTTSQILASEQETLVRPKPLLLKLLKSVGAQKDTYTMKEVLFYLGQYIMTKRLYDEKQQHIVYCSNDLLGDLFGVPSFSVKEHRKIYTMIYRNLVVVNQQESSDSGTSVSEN

T5 sequence (Q00987 1-125 M62A): as the sequence (Q00987 1-125 P20L) above, with L20P, M62A counted along it
T6 sequence (Q00987 1-125 Q24R): as the sequence (Q00987 1-125 P20L) above, with L20P, Q24R counted along it
T4 sequence (Q00987 1-125): as the sequence (Q00987 1-125 P20L) above, with L20P counted along it
T1 sequence (Q00987 1-125 M62A): as the sequence (Q00987 1-125 P20L) above, with L20P, M62A counted along it
T3 sequence (Q00987 1-125 P20L): as the sequence (Q00987 1-125 P20L) above
T2 sequence (Q00987 1-125 Q24R): as the sequence (Q00987 1-125 P20L) above, with L20P, Q24R counted along it

Molecule: COc1ccc(C2=N[C@@H](c3ccc(Cl)cc3)[C@@H](c3ccc(Cl)cc3)N2C(=O)N2CCNC(=O)C2)c(OC(C)C)c1 [Nutlin]
Inhibition of p53-HDM2 interaction (pull-down, Western blot) [1]: strong repression of the HDM2-p53 interaction; also recorded: inhibits p53-HDM2 interaction
p53 activation of p21, gadd45α and 14-3-3σ transcript levels, mutants versus wild-type HDM2 [2]: significant reduction of p53 transcriptional activity was observed for the M62A and Q24R mutants compared to wild-type
Dissociation of p53-HDM2 complex, mutants (Q24R, M62A) versus wild-type (F2H) [3]: reduced dissociation of mutant N-terminal domains from p53, indicating Nutlin resistance; also recorded: increased dissociation of WT-p53 complex compared to Q24R/M62A-p53 complexes
Binding to HDM2 Y104G (HDM2 Y104G): recalcitrant to Nutlin binding
Effect of loss of M62 contact on Nutlin binding (HDM2 M62): major loss of binding

Change of binding affinity versus wild-type HDM2 (HDM2 (1-125) M62A): very slight perturbation of binding
Change of binding affinity versus wild-type HDM2 (HDM2 (1-125) Q24R): not perturbed
Change of binding affinity versus wild-type HDM2 (HDM2 (1-125) P20L): not perturbed
Molecule: CC(=O)N[C@H](C(=O)N[C@@H](CO)C(=O)N[C@@H](Cc1ccccc1)C(=O)N[C@]1(C)CCCCCCC=CCCC[C@@](C)(C(N)=O)NC(=O)[C@H](CC(C)C)NC(=O)[C@H](CC(C)C)NC(=O)[C@H](C)NC(=O)[C@H](Cc2c[nH]c3cc(Cl)ccc23)NC(=O)[C@H](Cc2ccc(O)cc2)NC(=O)[C@H](CCC(=O)O)NC1=O)[C@@H](C)O [MO11]
Inhibition of p53-HDM2 interaction (pull-down, Western blot) [1]: strong repression of the HDM2-p53 interaction; also recorded: inhibition of p53 binding to both WT and mutant HDM2
Inhibition of p53-HDM2 interaction (pull-down, Western blot) [4]: able to abrogate the mutant HDM2-p53 interaction as efficiently as Nutlin inhibits the wild-type HDM2-p53 interaction; also recorded: inhibition of p53 binding to both WT and mutant HDM2
Inhibition of p53-HDM2 interaction (pull-down, Western blot) [5]: able to abrogate the mutant HDM2-p53 interaction as efficiently as Nutlin inhibits the wild-type HDM2-p53 interaction; also recorded: inhibition of p53 binding to both WT and mutant HDM2
p53 reporter activity restored (percentage of activity with p53-only transfection) [6]: 51%
p53 reporter activity restored (percentage of activity with p53-only transfection) [7]: 47%

Kd [8]: 13.9 nM
Kd [9]: 29.6 nM
Kd [10]: 10.4 nM
Kd [11]: 17.2 nM
Molecule: P53 peptide (ligand of Table 1)

binding result ([8]; both partners purified): binds
binding result ([9]; both partners purified): binds
binding result ([10]; both partners purified): binds
binding result ([11]; both partners purified): binds
B1: carboxyfluorescein (FAM) labeled 12-1 peptide (FAM-RFMDYWEGL-NH2) (peptide)
peptide: {FAM}-RFMDYWEGL-NH2
notes: that it is not a natural p53 stretch is my surmise
